Reference: ChEMBL document CHEMBL1133256, “6-Bicyclopiperazinyl-1-arylsulfonylindoles and 6-bicyclopiperidinyl-1-arylsulfonylindoles derivatives as novel, potent, and selective 5-HT6 receptor antagonists” (Bioorg Med Chem Lett, 2000)

Assays:
[1] = target: 5-hydroxytryptamine receptor 6 (Homo sapiens, UniProt P50406); assay: Displacement of [3H]LSD from human 5-hydroxytryptamine 6 receptor expressed in HEK 293 cells; type: cell-based, HEK293
[2] = target: T1, 5-hydroxytryptamine receptor 1A (Homo sapiens) (UniProt P08908); assay: In vitro binding affinity against human 5-hydroxytryptamine 1A receptor at a concentration of 100 (nM)
T1 sequence (whole entry): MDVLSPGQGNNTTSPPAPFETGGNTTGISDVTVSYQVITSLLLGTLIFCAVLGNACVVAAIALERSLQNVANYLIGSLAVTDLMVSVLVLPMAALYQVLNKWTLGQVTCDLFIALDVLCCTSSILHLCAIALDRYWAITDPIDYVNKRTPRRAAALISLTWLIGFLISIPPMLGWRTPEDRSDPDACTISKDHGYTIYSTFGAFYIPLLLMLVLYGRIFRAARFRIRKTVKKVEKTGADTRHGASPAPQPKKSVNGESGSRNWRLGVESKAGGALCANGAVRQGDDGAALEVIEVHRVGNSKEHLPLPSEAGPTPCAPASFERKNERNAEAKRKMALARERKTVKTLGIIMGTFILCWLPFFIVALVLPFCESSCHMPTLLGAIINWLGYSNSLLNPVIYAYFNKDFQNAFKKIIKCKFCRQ

[3] = target: 5-hydroxytryptamine receptor 1B (Homo sapiens) (UniProt P28222); assay: In vitro binding affinity against human 5-hydroxytryptamine 1B receptor at a concentration of 100 (nM)
Sequence of 5-hydroxytryptamine receptor 1B (Homo sapiens) (P28222 whole entry): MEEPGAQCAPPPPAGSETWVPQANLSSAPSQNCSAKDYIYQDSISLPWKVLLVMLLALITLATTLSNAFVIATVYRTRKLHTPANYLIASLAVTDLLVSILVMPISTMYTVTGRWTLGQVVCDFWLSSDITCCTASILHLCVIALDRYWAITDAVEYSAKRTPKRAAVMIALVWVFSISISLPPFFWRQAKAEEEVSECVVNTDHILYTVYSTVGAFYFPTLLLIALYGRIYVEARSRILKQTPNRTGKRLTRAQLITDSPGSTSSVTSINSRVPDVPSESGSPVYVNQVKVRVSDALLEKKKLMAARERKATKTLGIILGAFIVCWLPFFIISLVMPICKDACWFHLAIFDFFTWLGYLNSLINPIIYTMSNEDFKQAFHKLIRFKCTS

[4] = target: T2, 5-hydroxytryptamine receptor 1F (Homo sapiens) (UniProt P30939); assay: In vitro binding affinity against human 5-hydroxytryptamine 1F receptor at a concentration of 100 (nM)
T2 sequence (whole entry): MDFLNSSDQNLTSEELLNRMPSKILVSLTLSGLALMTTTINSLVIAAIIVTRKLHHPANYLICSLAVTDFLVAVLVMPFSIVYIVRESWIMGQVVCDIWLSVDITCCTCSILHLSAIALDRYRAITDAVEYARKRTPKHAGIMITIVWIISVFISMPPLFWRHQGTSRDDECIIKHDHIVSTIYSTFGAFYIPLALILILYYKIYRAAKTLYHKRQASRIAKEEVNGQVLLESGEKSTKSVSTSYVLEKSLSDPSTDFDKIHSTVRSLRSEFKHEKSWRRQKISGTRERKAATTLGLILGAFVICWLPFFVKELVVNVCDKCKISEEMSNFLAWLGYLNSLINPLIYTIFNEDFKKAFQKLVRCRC

[5] = target: 5-hydroxytryptamine receptor 1D (Homo sapiens) (UniProt P28221); assay: In vitro binding affinity against human 5-hydroxytryptamine 1D receptor at a concentration of 100 (nM)
Sequence of 5-hydroxytryptamine receptor 1D (Homo sapiens) (P28221 whole entry): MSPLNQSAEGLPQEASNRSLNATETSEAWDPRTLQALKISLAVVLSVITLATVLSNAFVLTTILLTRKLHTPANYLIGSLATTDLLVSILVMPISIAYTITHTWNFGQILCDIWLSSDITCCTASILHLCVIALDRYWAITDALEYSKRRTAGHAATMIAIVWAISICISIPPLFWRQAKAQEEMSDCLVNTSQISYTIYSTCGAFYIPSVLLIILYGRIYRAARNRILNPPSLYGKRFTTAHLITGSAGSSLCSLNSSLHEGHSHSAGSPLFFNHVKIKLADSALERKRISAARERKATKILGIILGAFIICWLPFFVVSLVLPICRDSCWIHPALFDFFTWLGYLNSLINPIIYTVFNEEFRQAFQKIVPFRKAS

[6] = target: 5-hydroxytryptamine receptor 2A (Homo sapiens) (UniProt P28223); assay: In vitro binding affinity against human 5-hydroxytryptamine 2A receptor at a concentration of 100 (nM)
Sequence of 5-hydroxytryptamine receptor 2A (Homo sapiens) (P28223 whole entry): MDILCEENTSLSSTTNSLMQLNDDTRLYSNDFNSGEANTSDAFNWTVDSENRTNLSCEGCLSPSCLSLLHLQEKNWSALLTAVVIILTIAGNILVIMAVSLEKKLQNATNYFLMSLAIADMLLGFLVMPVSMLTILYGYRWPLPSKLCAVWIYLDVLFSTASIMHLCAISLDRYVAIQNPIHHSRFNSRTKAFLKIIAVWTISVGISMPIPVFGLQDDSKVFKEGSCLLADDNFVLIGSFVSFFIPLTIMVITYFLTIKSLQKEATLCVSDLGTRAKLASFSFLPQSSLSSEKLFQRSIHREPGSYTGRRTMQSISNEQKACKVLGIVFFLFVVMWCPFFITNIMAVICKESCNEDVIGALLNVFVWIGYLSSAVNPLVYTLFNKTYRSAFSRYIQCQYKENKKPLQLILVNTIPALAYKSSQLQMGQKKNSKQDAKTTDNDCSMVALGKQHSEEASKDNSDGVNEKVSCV

[7] = target: 5-hydroxytryptamine receptor 2B (Homo sapiens) (UniProt P41595); assay: In vitro binding affinity against human 5-HT2B receptor at a concentration of 100 (nM)
Sequence of 5-hydroxytryptamine receptor 2B (Homo sapiens) (P41595 whole entry): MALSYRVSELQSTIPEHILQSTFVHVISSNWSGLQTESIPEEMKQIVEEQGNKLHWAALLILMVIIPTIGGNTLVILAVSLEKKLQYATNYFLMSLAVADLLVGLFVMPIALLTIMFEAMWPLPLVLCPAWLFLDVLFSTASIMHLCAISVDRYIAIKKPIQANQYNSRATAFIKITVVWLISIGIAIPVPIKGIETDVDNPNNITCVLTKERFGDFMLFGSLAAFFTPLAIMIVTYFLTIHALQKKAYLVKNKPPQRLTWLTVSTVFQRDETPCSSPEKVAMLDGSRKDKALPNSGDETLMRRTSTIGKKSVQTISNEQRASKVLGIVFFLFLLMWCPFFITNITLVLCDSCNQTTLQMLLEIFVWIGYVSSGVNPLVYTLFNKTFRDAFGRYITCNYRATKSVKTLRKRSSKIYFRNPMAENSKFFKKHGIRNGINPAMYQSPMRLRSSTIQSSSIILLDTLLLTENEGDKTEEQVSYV

[8] = target: T3, 5-hydroxytryptamine receptor 2C (Homo sapiens) (UniProt P28335); assay: In vitro binding affinity against human 5-hydroxytryptamine 2C receptor at a concentration of 100 (nM)
T3 sequence (whole entry): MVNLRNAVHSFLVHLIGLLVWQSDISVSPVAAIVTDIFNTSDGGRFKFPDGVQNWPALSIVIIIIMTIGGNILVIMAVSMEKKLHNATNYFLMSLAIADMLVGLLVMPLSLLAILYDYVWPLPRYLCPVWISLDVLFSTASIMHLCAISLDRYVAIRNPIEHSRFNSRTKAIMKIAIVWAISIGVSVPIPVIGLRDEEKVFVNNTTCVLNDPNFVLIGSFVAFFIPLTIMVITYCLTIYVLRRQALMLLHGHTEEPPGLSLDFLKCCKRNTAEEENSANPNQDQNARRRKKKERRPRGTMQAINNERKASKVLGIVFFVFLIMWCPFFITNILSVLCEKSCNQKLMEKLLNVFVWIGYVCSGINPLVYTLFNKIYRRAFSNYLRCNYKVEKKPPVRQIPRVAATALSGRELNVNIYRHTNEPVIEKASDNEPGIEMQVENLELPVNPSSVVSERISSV

[9] = target: 5-hydroxytryptamine receptor 7 (Homo sapiens) (UniProt P34969); assay: In vitro binding affinity against human 5-hydroxytryptamine 7 receptor at a concentration of 100 (nM)
Sequence of 5-hydroxytryptamine receptor 7 (Homo sapiens) (P34969 whole entry): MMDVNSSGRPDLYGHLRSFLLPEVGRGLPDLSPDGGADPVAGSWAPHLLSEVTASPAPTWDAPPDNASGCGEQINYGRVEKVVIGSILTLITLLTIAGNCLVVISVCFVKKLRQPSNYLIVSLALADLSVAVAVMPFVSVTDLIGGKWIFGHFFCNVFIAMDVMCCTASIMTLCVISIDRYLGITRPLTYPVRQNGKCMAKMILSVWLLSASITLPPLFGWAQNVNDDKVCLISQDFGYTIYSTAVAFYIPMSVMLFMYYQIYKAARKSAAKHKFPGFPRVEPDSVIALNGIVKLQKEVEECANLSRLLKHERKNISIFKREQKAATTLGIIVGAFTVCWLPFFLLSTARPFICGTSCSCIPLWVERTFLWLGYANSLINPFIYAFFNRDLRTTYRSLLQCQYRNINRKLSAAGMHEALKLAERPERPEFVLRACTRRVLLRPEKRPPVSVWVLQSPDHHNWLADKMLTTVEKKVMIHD

[10] = target: Adrenergic receptor alpha-1 (Homo sapiens) (UniProt P35348+P25100+P35368); assay: In vitro binding affinity against human Alpha-1 adrenergic receptor at a concentration of 100 (nM); type: protein assay
[11] = target: D(1A) dopamine receptor (Homo sapiens) (UniProt P21728); assay: In vitro binding affinity against human Dopamine receptor D1 at a concentration of 100 (nM)
Sequence of D(1A) dopamine receptor (Homo sapiens) (P21728 whole entry): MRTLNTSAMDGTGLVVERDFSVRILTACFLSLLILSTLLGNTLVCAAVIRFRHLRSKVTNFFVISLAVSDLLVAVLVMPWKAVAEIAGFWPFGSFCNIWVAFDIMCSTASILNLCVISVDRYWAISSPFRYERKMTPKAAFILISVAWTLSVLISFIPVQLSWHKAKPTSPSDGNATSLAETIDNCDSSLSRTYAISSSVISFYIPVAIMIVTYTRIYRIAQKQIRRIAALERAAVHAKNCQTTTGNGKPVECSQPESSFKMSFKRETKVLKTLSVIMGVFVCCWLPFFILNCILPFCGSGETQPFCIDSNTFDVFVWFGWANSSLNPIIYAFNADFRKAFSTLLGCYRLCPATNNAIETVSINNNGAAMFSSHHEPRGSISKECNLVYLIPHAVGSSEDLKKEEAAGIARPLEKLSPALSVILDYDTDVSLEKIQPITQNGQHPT

[12] = target: D(3) dopamine receptor (Homo sapiens) (UniProt P35462); assay: In vitro binding affinity against human Dopamine receptor D3 at a concentration of 100 (nM)
Sequence of D(3) dopamine receptor (Homo sapiens) (P35462 whole entry): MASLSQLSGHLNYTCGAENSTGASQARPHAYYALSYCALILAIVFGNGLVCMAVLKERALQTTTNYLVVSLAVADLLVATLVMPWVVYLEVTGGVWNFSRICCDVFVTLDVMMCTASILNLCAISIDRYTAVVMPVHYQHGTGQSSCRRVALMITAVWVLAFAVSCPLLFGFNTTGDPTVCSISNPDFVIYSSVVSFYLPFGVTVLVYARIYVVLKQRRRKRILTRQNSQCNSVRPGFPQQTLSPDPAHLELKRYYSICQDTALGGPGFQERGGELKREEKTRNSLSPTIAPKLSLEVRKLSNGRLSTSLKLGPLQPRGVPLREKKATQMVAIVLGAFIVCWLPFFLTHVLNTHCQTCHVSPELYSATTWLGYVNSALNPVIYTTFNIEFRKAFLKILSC

[13] = target: T4, D(4) dopamine receptor (Homo sapiens) (UniProt P21917); assay: In vitro binding affinity against human Dopamine receptor D4 at a concentration of 100 (nM)
T4 sequence (whole entry): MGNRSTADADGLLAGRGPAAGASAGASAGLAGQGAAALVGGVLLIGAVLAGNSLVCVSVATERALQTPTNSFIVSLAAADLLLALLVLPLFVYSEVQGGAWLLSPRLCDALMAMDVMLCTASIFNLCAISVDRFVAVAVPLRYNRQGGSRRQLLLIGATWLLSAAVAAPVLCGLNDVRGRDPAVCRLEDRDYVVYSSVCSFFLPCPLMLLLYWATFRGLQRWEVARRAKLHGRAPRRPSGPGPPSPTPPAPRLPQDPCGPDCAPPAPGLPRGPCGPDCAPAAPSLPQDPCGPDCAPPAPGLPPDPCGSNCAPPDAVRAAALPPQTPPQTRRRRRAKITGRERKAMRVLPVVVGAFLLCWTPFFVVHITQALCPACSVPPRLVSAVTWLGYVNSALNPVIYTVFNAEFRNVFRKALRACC

[14] = target: D(1B) dopamine receptor (Homo sapiens) (UniProt P21918); assay: In vitro binding affinity against human D5 receptor at a concentration of 100 (nM)
Sequence of D(1B) dopamine receptor (Homo sapiens) (P21918 whole entry): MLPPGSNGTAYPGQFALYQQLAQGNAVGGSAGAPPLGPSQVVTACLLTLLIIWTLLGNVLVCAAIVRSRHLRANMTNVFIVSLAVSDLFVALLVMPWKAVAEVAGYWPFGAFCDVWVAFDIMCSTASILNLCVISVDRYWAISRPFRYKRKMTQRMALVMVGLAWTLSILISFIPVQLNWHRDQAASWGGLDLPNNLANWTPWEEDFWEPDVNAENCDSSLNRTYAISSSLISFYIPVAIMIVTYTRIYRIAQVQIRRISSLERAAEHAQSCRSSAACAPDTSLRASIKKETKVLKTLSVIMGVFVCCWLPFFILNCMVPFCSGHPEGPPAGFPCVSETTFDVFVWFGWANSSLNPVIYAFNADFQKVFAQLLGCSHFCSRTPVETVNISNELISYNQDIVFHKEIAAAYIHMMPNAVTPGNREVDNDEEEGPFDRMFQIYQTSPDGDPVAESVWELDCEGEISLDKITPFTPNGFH

[15] = target: Muscarinic acetylcholine receptors; M1 & M2 (Homo sapiens) (UniProt P11229+P08172); assay: In vitro binding affinity against human Muscarinic acetylcholine receptor M1- Muscarinic acetylcholine receptor M2 at a concentration of 100 (nM); type: protein assay
[16] = target: D(2) dopamine receptor (Homo sapiens) (UniProt P14416); assay: In vitro binding affinity against human Dopamine receptor D2 at a concentration of 100 (nM)
Sequence of D(2) dopamine receptor (Homo sapiens) (P14416 whole entry): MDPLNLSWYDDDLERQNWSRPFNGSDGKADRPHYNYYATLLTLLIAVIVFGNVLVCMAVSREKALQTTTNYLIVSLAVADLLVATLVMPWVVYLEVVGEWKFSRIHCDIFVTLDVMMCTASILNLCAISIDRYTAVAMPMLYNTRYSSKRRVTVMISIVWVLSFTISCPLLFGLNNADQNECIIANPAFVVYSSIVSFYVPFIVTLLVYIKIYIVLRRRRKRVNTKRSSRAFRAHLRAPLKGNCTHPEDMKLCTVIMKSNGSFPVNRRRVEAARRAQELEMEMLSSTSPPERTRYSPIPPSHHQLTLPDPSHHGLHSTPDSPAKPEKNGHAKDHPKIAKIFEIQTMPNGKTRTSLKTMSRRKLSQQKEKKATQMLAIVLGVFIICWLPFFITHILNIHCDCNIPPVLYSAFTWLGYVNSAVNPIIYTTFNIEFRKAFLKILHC

Sequence of 5-hydroxytryptamine receptor 6 (P50406 whole entry): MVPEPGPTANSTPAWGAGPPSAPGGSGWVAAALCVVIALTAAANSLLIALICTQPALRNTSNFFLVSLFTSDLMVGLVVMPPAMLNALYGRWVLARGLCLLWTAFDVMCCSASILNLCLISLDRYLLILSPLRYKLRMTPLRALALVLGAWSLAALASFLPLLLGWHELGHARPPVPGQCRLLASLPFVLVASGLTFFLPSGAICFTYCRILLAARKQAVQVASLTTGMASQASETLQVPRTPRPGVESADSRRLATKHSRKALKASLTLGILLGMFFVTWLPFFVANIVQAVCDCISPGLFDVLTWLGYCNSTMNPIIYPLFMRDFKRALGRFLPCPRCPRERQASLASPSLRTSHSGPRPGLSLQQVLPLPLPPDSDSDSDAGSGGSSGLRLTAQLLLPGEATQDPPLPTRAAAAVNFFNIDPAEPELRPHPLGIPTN

Structure (SMILES): Cc1ccc(S(=O)(=O)n2ccc3ccc(N4CCN5CCCC5C4)cc32)cc1 (centres undefined)
- Ki [1]: 3.3 nM

Structure (SMILES): Cc1ccc(S(=O)(=O)n2ccc3ccc(N4CCN5CCCCC5C4)cc32)cc1 (centres undefined)
- Ki [1]: 4.9 nM

Structure (SMILES): O=S(=O)(c1cccc2ccccc12)n1ccc2ccc(C3=CCN4CCCC4C3)cc21 (centres undefined)
- Ki [1]: 1.3 nM

Structure (SMILES): O=S(=O)(c1ccc2ccccc2c1)n1ccc2ccc(N3CCN4CCCCC4C3)cc21 (centres undefined)
- Ki [1]: 3 nM

Structure (SMILES): O=S(=O)(c1cccc2ccccc12)n1ccc2ccc(C3(O)CCN4CCCC4C3)cc21 (centres undefined)
- Ki [1]: 4.7 nM

Structure (SMILES): O=S(=O)(c1ccccc1)n1ccc2ccc(N3CCN4CCCCC4C3)cc21 (centres undefined)
- Ki [1]: 5.7 nM

Structure (SMILES): O=S(=O)(c1cccc2ccccc12)n1ccc2ccc(C3CCN4CCCC4C3)cc21 (single isomer, unassigned; less polar)
- Ki [1]: 0.6 nM

Structure (SMILES): O=S(=O)(c1cccc2ccccc12)n1ccc2ccc(N3CCN4CCCCC4C3)cc21 (centres undefined)
- Ki [1]: 1.7 nM

Structure (SMILES): O=S(=O)(c1cccc2ccccc12)n1ccc2ccc(N3CCN4CCCC4C3)cc21 (centres undefined)
- inhibition [2]: 79%
- inhibition [3]: 2%
- inhibition [4]: 9%
- inhibition [5]: 5%
- inhibition [6]: 32%
- inhibition [7]: 36%
- inhibition [8]: 17%
- inhibition [9]: 8%
- inhibition [10]: 0%
- inhibition [11]: 1%
- inhibition [12]: 22%
- inhibition [13]: 0%
- inhibition [14]: 0%
- inhibition [15]: 0%
- inhibition [16]: 7%

Structure (SMILES): O=S(=O)(c1ccc(F)cc1F)n1ccc2ccc(N3CCN4CCCCC4C3)cc21 (centres undefined)
- Ki [1]: 3.6 nM
